Tests used:
CNE-2 xenograft = tested on: CNE-2 xenograft
From the text: The use and care of experimental animal was approved by Institutional Animal Care and Use Committee, Roche R&D Center (China). Tumor cells were inoculated into the right flank of BALB/C nu/nu female nude mice (5∼6 weeks, 16∼18 g, obtained from Sino-British SIPPR/BK Lab. Animal Ltd, Shanghai, China) at optimal density based on our in-house validation study. After the tumor was established and reached 100∼150 mm^3, the mice were randomized into ten mice per group and received treatment according to the schedule. The tumor growth was recorded three times a week with the measurement of length (L) and width (W) by caliper, and calculated as tumor volume (TV, mm^3) = 0.5*L*W*W (mm). […] The tumor regression of individual mouse was defined - the tumor volume at the end was less than the tumor volume when treatment was initiated.

phospho-histone H3 (S10) = assay: Immunofluorescence / western blot of Aurora B activity marker in SGC-7901; format: cell-based, human
Method: (§1) Cell lysate was prepared in RIPA buffer and quantified by the bicinchoninic acid (BCA) method (Pierce, Rockford, IL). Thirty micrograms of protein per sample was loaded onto a 4∼12% NuPAGE® Novex SDS gel (Invitrogen). The protein was transferred by an iBlot® dry blotting device (Invitrogen) onto nitrocellulose membranes. After blocking nonspecific binding with TBS/Tween20 (0.1%) (TBS/T) containing 5% non-fat milk for 1 h at room temperature, the membrane was incubated in phospho-Aurora A (Thr288) (C39D8) rabbit monoclonal antibody (Cell Signaling Technology, CST #3079, Beverly, MA) or phospho-Histone H3 (Ser10) rabbit polyclonal antibody (CST#9701) (1∶1000 in TBS/T containing 3% bovine serum albumin (BSA), and gently shaken at 4°C overnight. The membrane was washed with TBS/T three times to remove the unbound antibody, then incubated with the secondary antibody (HRP-conjugated goat anti-mouse IgG or goat anti-rabbit IgG, 1∶10000, KangChen Biotech, Shanghai, China) for 1 h at room temperature, respectively. Protein bands were visualized with an enhanced chemiluminescence (ECL) kit (Pierce, Rockford, IL). […]

[1] = tested on: phospho-Aurora kinase A (T288); assay: Immunofluorescence / western blot of Aurora A activity marker in SGC-7901; format: cell-based, human
Method: as §1

[2] = Metabolite profile in pooled liver microsomes; format: in vitro ADME
Method: Supplementary file pone.0065264.s005.doc: Table S4 Metabolite profiles in pooled liver microsomes. Pooled liver microsomes were incubated with R1498 and the metabolites were identified to predict the most close species to human. (DOC) Click here for additional data file.

402 kinases = assay: KINOMEScan kinase affinity profiling; format: binding; details: 1 µM, ATP around Km of each kinase; 359 wild-type kinases and 43 mutants
Method: The affinity of R1498 against 402 kinases was determined by KINOMEScan® (Ambit Biosciences, San Diego, CA) and data were presented as dissociation constant (Kd) values. The inhibition on kinase activity of Aurora kinases and VEGFR2 was further characterized by Z’-Lyte kinase activity assays under corresponding ATP concentrations.

[3] = tested on: HUVEC (VEGF 165 stimulated); assay: VEGF-induced HUVEC proliferation assay; format: cell-based; details: Homo sapiens, 0.5% FBS with VEGF 165, 72 h
Method: Each cell line was seeded in a 96-well tissue culture plate (Corning, NY) at a predetermined density in 180 µL complete medium, attached overnight and treated by compound for another 72 h. Then the medium was discarded and replaced with 10% CCK-8 (Dojindo, Kumamoto, Japan) in complete medium, then incubated the plates for another 2 h. The OD450 was measured with SpectraMAX 190 spectrophotometer (MDS, Sunnyvale, CA). A background absorbance of ODblank was subtracted from all wells.
In VEGF-induced HUVEC proliferation assay, the HUVECs suspended in 170 µL EGM-2 with 0.5% FBS were seeded and incubated overnight. After the cells attached, 10 µL 1 µg/ml recombinant human VEGF 165 (R&D systems, Minneapolis, MN) was added to each well together with 20 µl compound solutions prepared in EGM-2 with 0.5% FBS. The CCK-8 assay as above was used for determination of cell viability.

[4] = SGC-7901 synchronized with nocodazole, various concentrations, acute treatment

For COc1ccc2c(c1)C(c1ccccc1Cl)=Nc1c(n[nH]c1C)N2 [R1498], the Body weight changes% (CNE-2 xenograft; CNE-2, 25 mg/kg twice a day per oral gavage, before vs after treatment) was 16.3%, the “Tumor Regression” value (CNE-2 xenograft; CNE-2, 25 mg/kg twice a day per oral gavage, mice with regression/group) was 0/10 and the “Final TGI%” value (CNE-2 xenograft; CNE-2, 25 mg/kg twice-daily per oral gavage, day of study termination) was 90%. The “phospho-histone H3 (S10) (immunofluorescence)” value (phospho-histone H3 (S10); SGC-7901, 5 µM, 24 h) was “decreased sharply”, the “phosphorylation of phospho-histone H3 (S10) (western blot)” value (phospho-histone H3 (S10); [4]) was “decreased in a concentration-dependent manner” and the “Aurora A T288 green foci in mitotic cells (immunofluorescence)” value ([1]; SGC-7901, 5 µM, 24 h) was “became weaker or disappeared”. For the same compound, the “phosphorylation of phospho-Aurora kinase A (T288) (western blot)” value [1, 4] was “decreased in a concentration-dependent manner”, the “Parent (M0)” value ([2]; Dog pooled liver microsomes) was 99.0 and the “Total M%” value ([2]; Dog pooled liver microsomes) was 1.0%. The “Parent (M0)” value ([2]; Human pooled liver microsomes) was 91.9, the “Total M%” value ([2]; Human pooled liver microsomes) was 8.1% and the “Parent (M0)” value ([2]; Monkey pooled liver microsomes) was 43.3. The “Total M%” value ([2]; Monkey pooled liver microsomes) was 56.7%, the “Parent (M0)” value ([2]; Mouse pooled liver microsomes) was 94.8 and the “Total M%” value ([2]; Mouse pooled liver microsomes) was 5.2%. For the same compound, the “Parent (M0)” value ([2]; Rat pooled liver microsomes) was 90.8, the “Total M%” value ([2]; Rat pooled liver microsomes) was 9.2% and the “number of kinases with inhibition rate over 80% out of 402 kinases” value (402 kinases) was 39. For the same compound, the IC50 [3] was 89 nM.
